Experimental data as given in the supplement of paper PMC10307832.

compound: C1CSC2=C(C(=O)N1)SC3=C2C=C(C=C3)O [kb NB 142-70] + Cc1nc(Nc2ncc(C(=O)Nc3c(C)cccc3Cl)s2)cc(N2CCN(CCO)CC2)n1 [Dasatinib] (partner 0.075 µM); test: relative viability (nuclei count vs DMSO), 5 days (fraction); higher = more cells survive; details: first compound 0.1 µM
Method in brief: (§1)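 Nuclei were stained with Hoechst during a one-step fixation (final 0.05% Triton X-100, 1% formaldehyde, 1 ug/ml Hoechst) carried out 5 days after dosing, then counted on 4× images. The cells, lung cancer lines in 1536-well plates, had been dosed by pin tool the day after seeding with one drug alone or a fixed anchor-drug dose plus five library-drug doses (not always all listed) in √10 steps. Relative viability is the nuclei count in treated wells divided by that in vehicle wells, and each value is the median of duplicate plates.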

| Cell Line | relative viability |
| --- | --- |
| NCI-H2342 | 0.349 |
| NCI-H1623 | 0.552 |
| NCI-H727 | 0.427 |
| NCI-H1650 | 0.348 |
| NCI-H1993 | 0.626 |
| SW 1573 | 0.491 |
| NCI-H838 | 0.268 |
| LCLC-103H | 0.459 |
| NCI-H520 | 0.168 |
| NCI-H2126 | 0.622 |
| EMC-BAC-2 | 0.363 |
| NCI-H2085 | 0.252 |
| HCC-366 | 0.634 |
| NCI-H1666 | 0.849 |
| NCI-H596 | 0.551 |
| NCI-H1792 | 0.757 |
| NCI-H1563 | 0.464 |
| ABC-1 | 0.663 |

same assay, conditions: first compound 1 µM

| Cell Line | relative viability |
| --- | --- |
| NCI-H2342 | 0.311 |
| NCI-H1623 | 0.558 |
| NCI-H727 | 0.354 |
| NCI-H1650 | 0.382 |
| NCI-H1993 | 0.478 |
| SW 1573 | 0.458 |
| NCI-H838 | 0.282 |
| LCLC-103H | 0.521 |
| NCI-H520 | 0.197 |
| NCI-H2126 | 0.558 |
| EMC-BAC-2 | 0.305 |
| NCI-H2085 | 0.198 |
| HCC-366 | 0.498 |
| NCI-H1666 | 0.808 |
| NCI-H596 | 0.571 |
| NCI-H1792 | 0.816 |
| NCI-H1563 | 0.467 |
| ABC-1 | 0.49 |

same assay, conditions: first compound 3.162 µM

| Cell Line | relative viability |
| --- | --- |
| NCI-H2342 | 0.255 |
| NCI-H1623 | 0.428 |
| NCI-H727 | 0.272 |
| NCI-H1650 | 0.253 |
| NCI-H1993 | 0.531 |
| SW 1573 | 0.188 |
| NCI-H838 | 0.301 |
| LCLC-103H | 0.505 |
| NCI-H520 | 0.173 |
| NCI-H2126 | 0.537 |
| EMC-BAC-2 | 0.235 |
| NCI-H2085 | 0.274 |
| HCC-366 | 0.378 |
| NCI-H1666 | 0.732 |
| NCI-H596 | 0.442 |
| NCI-H1792 | 0.769 |
| NCI-H1563 | 0.424 |
| ABC-1 | 0.361 |

compound: NCC(=O)Nc1ccc(-n2nc(C(F)(F)F)cc2-c2ccc3c(ccc4ccccc43)c2)cc1 + Cc1nc(Nc2ncc(C(=O)Nc3c(C)cccc3Cl)s2)cc(N2CCN(CCO)CC2)n1 [Dasatinib] (partner 0.075 µM); test: as above; details: first compound 0.02 µM
Method in brief: as §1

| Cell Line | relative viability |
| --- | --- |
| NCI-H2342 | 0.313 |
| NCI-H1623 | 0.544 |
| NCI-H727 | 0.375 |
| NCI-H1650 | 0.349 |
| NCI-H1993 | 0.569 |
| SW 1573 | 0.471 |
| NCI-H838 | 0.233 |
| LCLC-103H | 0.439 |
| NCI-H520 | 0.207 |
| NCI-H2126 | 0.573 |
| EMC-BAC-2 | 0.316 |
| NCI-H2085 | 0.291 |
| HCC-366 | 0.659 |
| NCI-H1666 | 0.814 |
| NCI-H596 | 0.626 |
| NCI-H1792 | 0.605 |
| NCI-H1563 | 0.47 |
| ABC-1 | 0.613 |

same assay, conditions: first compound 0.06325 µM

| Cell Line | relative viability |
| --- | --- |
| NCI-H2342 | 0.331 |
| NCI-H1623 | 0.676 |
| NCI-H727 | 0.365 |
| NCI-H1650 | 0.313 |
| NCI-H1993 | 0.696 |
| SW 1573 | 0.383 |
| NCI-H838 | 0.305 |
| LCLC-103H | 0.458 |
| NCI-H520 | 0.206 |
| NCI-H2126 | 0.664 |
| EMC-BAC-2 | 0.286 |
| NCI-H2085 | 0.282 |
| HCC-366 | 0.644 |
| NCI-H1666 | 0.793 |
| NCI-H596 | 0.66 |
| NCI-H1563 | 0.479 |
| ABC-1 | 0.602 |

same assay, conditions: first compound 0.2 µM

| Cell Line | relative viability |
| --- | --- |
| NCI-H2342 | 0.312 |
| NCI-H1623 | 0.531 |
| NCI-H727 | 0.347 |
| NCI-H1993 | 0.526 |
| SW 1573 | 0.586 |
| NCI-H838 | 0.273 |
| LCLC-103H | 0.485 |
| NCI-H520 | 0.177 |
| NCI-H2126 | 0.667 |
| EMC-BAC-2 | 0.325 |
| NCI-H2085 | 0.292 |
| HCC-366 | 0.615 |
| NCI-H1666 | 0.881 |
| NCI-H596 | 0.591 |
| NCI-H1792 | 0.915 |
| NCI-H1563 | 0.477 |

same assay, conditions: first compound 0.6325 µM

| Cell Line | relative viability |
| --- | --- |
| NCI-H2342 | 0.285 |
| NCI-H1623 | 0.488 |
| NCI-H727 | 0.467 |
| NCI-H1650 | 0.364 |
| NCI-H1993 | 0.688 |
| SW 1573 | 0.471 |
| NCI-H838 | 0.302 |
| LCLC-103H | 0.465 |
| NCI-H520 | 0.213 |
| NCI-H2126 | 0.702 |
| EMC-BAC-2 | 0.377 |
| NCI-H2085 | 0.263 |
| HCC-366 | 0.621 |
| NCI-H1666 | 0.814 |
| NCI-H596 | 0.6 |
| NCI-H1792 | 0.836 |
| NCI-H1563 | 0.469 |
| ABC-1 | 0.59 |

same assay, conditions: first compound 2 µM

| Cell Line | relative viability |
| --- | --- |
| NCI-H2342 | 0.305 |
| NCI-H1623 | 0.528 |
| NCI-H727 | 0.345 |
| NCI-H1650 | 0.396 |
| NCI-H1993 | 0.631 |
| SW 1573 | 0.424 |
| NCI-H838 | 0.285 |
| LCLC-103H | 0.433 |
| NCI-H520 | 0.212 |
| NCI-H2126 | 0.602 |
| EMC-BAC-2 | 0.338 |
| NCI-H2085 | 0.341 |
| HCC-366 | 0.624 |
| NCI-H1666 | 0.744 |
| NCI-H596 | 0.652 |
| NCI-H1792 | 0.726 |
| NCI-H1563 | 0.525 |
